# In ChEMBL document CHEMBL3526096, “Species differences in biliary clearance and possible relevance of hepatic uptake and efflux transporters involvement” (Drug Metab Dispos, 2013):
# Assays:
# Rattus norvegicus [1] = assay: Unbound biliary clearance in iv dosed rat; assay type: ADME, organism-based, Bile; conditions: in vivo
# [2] = Drug excretion in iv dosed rat assessed as compound excreted into bile; assay type: ADME, organism-based; conditions: read-out: Drug excretion
# [3] = Drug excretion in iv dosed human assessed as compound excreted into bile after 7 hrs by duodenal perfusion method; assay type: ADME, organism-based; conditions: read-out: Drug excretion
# Homo sapiens [4] = assay: Total biliary clearance in iv dosed human after 7 hrs by duodenal perfusion method; assay type: ADME, organism-based, Bile; conditions: in vivo
# Rattus norvegicus [5] = assay: Total biliary clearance in iv dosed rat; assay type: ADME, organism-based, Bile; conditions: in vivo
# Canis familiaris [6] = assay: Total biliary clearance in iv dosed dog; assay type: ADME, organism-based, Canis lupus familiaris, Bile; conditions: in vivo
# Canis familiaris [7] = assay: Unbound biliary clearance in iv dosed dog; assay type: ADME, organism-based, Canis lupus familiaris, Bile; conditions: in vivo
# Homo sapiens [8] = assay: Unbound biliary clearance in iv dosed human after 7 hrs by duodenal perfusion method; assay type: ADME, organism-based, Bile; conditions: in vivo
# [9] = Drug excretion in iv dosed dog assessed as compound excreted into bile; assay type: ADME, organism-based, Canis lupus familiaris; conditions: read-out: Drug excretion
# [10] = Drug excretion in Wistar rat assessed as compound excreted into bile at 10 mg/kg, iv; assay type: ADME, organism-based; parameters: dose 10 mg/kg, route intravenous; conditions: read-out: Drug excretion
# [11] = Drug excretion in iv dosed human assessed as compound excreted into bile after 20 hrs; assay type: ADME, organism-based; conditions: read-out: Drug excretion
# Homo sapiens [12] = assay: Total biliary clearance in iv dosed human after 20 hrs by duodenal aspiration method; assay type: ADME, organism-based, Bile; conditions: in vivo
# Rattus norvegicus [13] = assay: Total biliary clearance in Wistar rat at 10 mg/kg, iv; assay type: ADME, organism-based, Bile; parameters: dose 10 mg/kg, route intravenous; conditions: in vivo
# Homo sapiens [14] = assay: Unbound biliary clearance in iv dosed human after 20 hrs; assay type: ADME, organism-based, Bile; conditions: in vivo
# Rattus norvegicus [15] = assay: Unbound biliary clearance in Wistar rat at 10 mg/kg, iv; assay type: ADME, organism-based, Bile; parameters: dose 10 mg/kg, route intravenous; conditions: in vivo
# [16] = Drug excretion in human assessed as compound excreted into bile at 1 nmol/l, iv after 8 hrs; assay type: ADME, organism-based; conditions: read-out: Drug excretion
# Homo sapiens [17] = assay: Unbound biliary clearance in human at 1 nmol/l, iv after 8 hrs; assay type: ADME, organism-based, Bile; conditions: in vivo
# [18] = Drug excretion in iv dosed Sprague-Dawley rat assessed as compound excreted into bile; assay type: ADME, organism-based; conditions: read-out: Drug excretion
# Rattus norvegicus [19] = assay: Total biliary clearance in iv dosed Sprague-Dawley rat; assay type: ADME, organism-based, Bile; conditions: in vivo
# Homo sapiens [20] = assay: Total biliary clearance in human at 1 nmol/l, iv after 8 hrs by duodenal perfusion method; assay type: ADME, organism-based, Bile; conditions: in vivo
# Rattus norvegicus [21] = assay: Unbound biliary clearance in iv dosed Sprague-Dawley rat; assay type: ADME, organism-based, Bile; conditions: in vivo
# [22] = Drug excretion in po dosed human assessed as compound excreted into bile after 24 hrs by T-tube method; assay type: ADME, organism-based; conditions: read-out: Drug excretion
# [23] = Drug excretion in Sprague-Dawley rat assessed as compound excreted into bile at 5 mg/kg, iv; assay type: ADME, organism-based; parameters: dose 5 mg/kg, route intravenous; conditions: read-out: Drug excretion
# Homo sapiens [24] = assay: Total biliary clearance in iv dosed human after 24 hrs by T-tube method; assay type: ADME, organism-based, Bile; conditions: in vivo
# Rattus norvegicus [25] = assay: Total biliary clearance in Sprague-Dawley rat at 5 mg/kg, iv; assay type: ADME, organism-based, Bile; parameters: dose 5 mg/kg, route intravenous; conditions: in vivo
# Rattus norvegicus [26] = assay: Unbound biliary clearance in Sprague-Dawley rat at 5 mg/kg, iv; assay type: ADME, organism-based, Bile; parameters: dose 5 mg/kg, route intravenous; conditions: in vivo
# [27] = Drug excretion in iv dosed human assessed as compound excreted into bile after 24 hrs by T-tube method; assay type: ADME, organism-based; conditions: read-out: Drug excretion
# Homo sapiens [28] = assay: Unbound biliary clearance in iv dosed human after 24 hrs by T-tube method; assay type: ADME, organism-based, Bile; conditions: in vivo
smiles,measurement,setting,value
CO[C@@]1(NC(=O)C2SC(=C(C(N)=O)C(=O)O)S2)C(=O)N2C(C(=O)O)=C(CSc3nnnn3C)CS[C@@H]21 (stereo partly drawn) [CEFOTETAN],CL free,Rattus norvegicus [1],0.5263 L/h/kg
same,dose excreted,[2],48%
same,dose excreted at 7 h,[3],11%
same,CL,Homo sapiens [4],0.00288 L/h/kg
same,CL,Rattus norvegicus [5],0.368 L/h/kg
same,CL,Canis familiaris [6],0.0418 L/h/kg
same,CL free,Canis familiaris [7],0.06846 L/h/kg
same,CL free,Homo sapiens [8],0.0192 L/h/kg
same,dose excreted,[9],17%
CC[C@H]1OC(=O)[C@H](C)[C@@H](O[C@H]2C[C@@](C)(OC)[C@@H](O)[C@H](C)O2)[C@H](C)[C@@H](O[C@@H]2O[C@H](C)C[C@H](N(C)C)[C@H]2O)[C@](C)(O)C[C@@H](C)C(=O)[C@H](C)[C@@H](O)[C@]1(C)O [ERYTHROMYCIN],dose excreted,[10],30%
same,dose excreted at 20 h,[11],13%
same,CL,Homo sapiens [12],0.06882 L/h/kg
same,CL,Rattus norvegicus [13],1.04 L/h/kg
same,CL free,Homo sapiens [14],0.4301 L/h/kg
same,CL,Canis familiaris [6],0.1426 L/h/kg
same,CL free,Canis familiaris [7],0.269 L/h/kg
same,CL free,Rattus norvegicus [15],1.343 L/h/kg
same,dose excreted,[9],5%
C[C@H]1O[C@@H](O[C@H]2[C@@H](O)C[C@H](O[C@H]3[C@@H](O)C[C@H](O[C@H]4CC[C@@]5(C)[C@H](CC[C@@H]6[C@@H]5C[C@@H](O)[C@]5(C)[C@@H](C7=CC(=O)OC7)CC[C@]65O)C4)O[C@@H]3C)O[C@@H]2C)C[C@H](O)[C@@H]1O [DIGOXIN],dose excreted at 8 h,[16],41%
same,CL free,Homo sapiens [17],0.1367 L/h/kg
same,dose excreted,[18],31%
same,CL,Rattus norvegicus [19],0.182 L/h/kg
same,CL,Homo sapiens [20],0.0957 L/h/kg
same,CL free,Rattus norvegicus [21],0.2597 L/h/kg
same,CL,Canis familiaris [6],0.07878 L/h/kg
same,CL free,Canis familiaris [7],0.161 L/h/kg
same,dose excreted,[9],7%
CCC(=O)C(CC(C)N(C)C)(c1ccccc1)c1ccccc1 (stereo not drawn) [METHADONE],dose excreted,[2],9%
same,dose excreted at 24 h,[22],0.06%
COc1cccc2c1C(=O)c1c(O)c3c(c(O)c1C2=O)C[C@@](O)(C(=O)CO)C[C@@H]3O[C@H]1C[C@H](N)[C@H](O)[C@H](C)O1 [DOXORUBICIN],dose excreted,[23],17%
same,CL,Homo sapiens [24],0.1221 L/h/kg
same,CL,Rattus norvegicus [25],0.221 L/h/kg
same,CL free,Rattus norvegicus [26],0.6492 L/h/kg
same,dose excreted at 24 h,[27],14%
same,CL free,Homo sapiens [28],0.4361 L/h/kg
same,CL,Canis familiaris [6],0.103 L/h/kg
same,CL free,Canis familiaris [7],0.3035 L/h/kg
same,dose excreted,[9],10%
